{"source": "patent US9855268B2", "about": "“Triazolo[4,5-d]pyrimidine derivatives” (Merck Patent GmbH, priority 2013, dated 2018)", "target": "GCN2 (Homo sapiens, UniProt Q9P2K8)", "sequence (Q9P2K8 whole entry, species assumed)": "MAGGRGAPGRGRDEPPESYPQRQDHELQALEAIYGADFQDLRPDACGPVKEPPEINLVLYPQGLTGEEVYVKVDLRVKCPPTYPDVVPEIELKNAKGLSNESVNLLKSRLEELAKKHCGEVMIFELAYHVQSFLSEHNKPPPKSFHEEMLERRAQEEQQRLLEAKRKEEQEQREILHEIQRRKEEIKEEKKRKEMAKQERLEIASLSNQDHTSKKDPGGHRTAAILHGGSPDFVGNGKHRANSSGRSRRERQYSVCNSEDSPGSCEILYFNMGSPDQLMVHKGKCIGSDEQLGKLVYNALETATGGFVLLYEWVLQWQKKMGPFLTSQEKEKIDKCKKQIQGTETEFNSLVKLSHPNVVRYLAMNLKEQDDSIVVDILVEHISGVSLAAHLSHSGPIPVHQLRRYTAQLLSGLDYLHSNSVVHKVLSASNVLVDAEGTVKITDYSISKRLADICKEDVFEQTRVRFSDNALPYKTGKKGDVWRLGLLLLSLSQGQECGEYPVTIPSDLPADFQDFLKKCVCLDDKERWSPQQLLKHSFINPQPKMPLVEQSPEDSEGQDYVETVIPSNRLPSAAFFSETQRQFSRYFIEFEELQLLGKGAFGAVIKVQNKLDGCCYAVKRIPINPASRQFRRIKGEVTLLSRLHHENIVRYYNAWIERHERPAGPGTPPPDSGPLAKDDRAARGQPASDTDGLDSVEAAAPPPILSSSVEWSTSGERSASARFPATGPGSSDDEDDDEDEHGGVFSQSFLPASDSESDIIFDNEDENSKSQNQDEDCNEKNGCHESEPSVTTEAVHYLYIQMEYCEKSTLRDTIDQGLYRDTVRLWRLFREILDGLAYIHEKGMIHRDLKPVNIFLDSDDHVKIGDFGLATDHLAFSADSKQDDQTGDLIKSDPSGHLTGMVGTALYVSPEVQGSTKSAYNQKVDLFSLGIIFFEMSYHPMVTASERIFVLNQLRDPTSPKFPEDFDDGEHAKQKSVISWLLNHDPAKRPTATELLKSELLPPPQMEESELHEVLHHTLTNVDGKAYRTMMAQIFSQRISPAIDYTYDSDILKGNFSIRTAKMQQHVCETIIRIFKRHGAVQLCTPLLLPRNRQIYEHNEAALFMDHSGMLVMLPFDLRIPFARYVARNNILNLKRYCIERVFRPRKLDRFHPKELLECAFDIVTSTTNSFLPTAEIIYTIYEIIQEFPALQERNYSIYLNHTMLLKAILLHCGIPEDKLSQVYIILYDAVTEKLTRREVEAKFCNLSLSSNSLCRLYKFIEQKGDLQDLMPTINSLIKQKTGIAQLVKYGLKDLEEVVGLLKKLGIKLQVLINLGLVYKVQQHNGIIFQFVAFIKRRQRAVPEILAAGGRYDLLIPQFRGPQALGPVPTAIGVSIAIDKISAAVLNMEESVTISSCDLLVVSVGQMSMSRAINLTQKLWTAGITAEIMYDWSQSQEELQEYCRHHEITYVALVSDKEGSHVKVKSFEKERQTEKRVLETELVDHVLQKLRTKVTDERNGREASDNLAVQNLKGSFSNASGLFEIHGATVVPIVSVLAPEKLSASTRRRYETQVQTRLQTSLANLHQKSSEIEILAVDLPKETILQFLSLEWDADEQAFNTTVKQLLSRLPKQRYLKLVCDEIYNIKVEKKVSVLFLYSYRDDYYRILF", "assay": "GCN2 enzyme assay (TR-FRET Lanthascreen, GFP-eIF2alpha phosphorylation)", "assay_type": "biochemical", "settings": "10 μM ATP, 80 nM GFP-eIF2a, 30 nM GCN2", "how_it_was_run": "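Kinase reaction with 10 μM ATP and 80 nM GFP-labelled eIF2alpha substrate at room temperature, stopped with EDTA. Phospho-eIF2alpha detected by TR-FRET between antibody and GFP-substrate, excitation at 340 nm.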", "note": "Counter-ions that a name gives are not always drawn.", "data": [{"smiles": "CCOc1ccc(-n2nnc3cnc(N[C@H]4CC[C@H](n5ncccc5=O)C4)nc32)cc1", "note": "(relative stereo) [A287, 2-{(trans)-3-[3-(4-ethoxy-phenyl)-3H-[1,2,3]triazolo[4,5-d]-pyrimidin-5-ylamino]-cyclopentyl}-2H-pyridazin-3-one]", "values": [{"measurement": "IC50", "result": "< 1000", "unit": "nM"}]}, {"smiles": "CC(C)(O)c1ccc(-n2nnc3cnc(N[C@@H]4CC[C@@H](O)C4)nc32)cc1", "note": "(relative stereo) [A290, (trans)-3-{3-[4-(1-Hydroxy-1-methyl-ethyl)-phenyl]-3H-[1,2,3]triazolo[4,5-d]pyrimidin-5-ylamino}-cyclopentanol]", "values": [{"measurement": "IC50", "result": "< 1000", "unit": "nM"}]}, {"smiles": "COc1ccc(-n2nnc3cnc(N[C@H]4CC[C@H](CCO)CC4)nc32)cc1", "note": "[A72, trans-2-{4-[3-(4-methoxy-phenyl)-3H-[1,2,3]triazolo[4,5-d]pyrimidin-5-ylamino]-cyclohexyl}-ethanol]", "values": [{"measurement": "IC50", "result": "< 1000", "unit": "nM"}]}, {"smiles": "NC(=O)[C@@H]1CC[C@@H](Nc2ncc3nnn(-c4ccc(N5CCOCC5=O)c(F)c4)c3n2)C1", "note": "[A154, (1R,3R)-3-{3-[3-fluoro-4-(3-oxo-morpholin-4-yl)-phenyl]-3H-[1,2,3]triazolo[4,5-d]pyrimidin-5-ylamino}-cyclopentanecarboxylic acid amide]", "values": [{"measurement": "IC50", "result": "< 1000", "unit": "nM"}]}, {"smiles": "CCn1cc(-c2ccc(-n3nnc4cnc(N[C@H]5CC[C@H](N)CC5)nc43)cc2)cn1", "note": "[A54, N-{3-[4-(1-ethyl-1H-pyrazol-4-yl)-phenyl]-3H-[1,2,3]triazolo[4,5-d]pyrimidin-5-yl}-(trans)-cyclohexane-1,4-diamine trifluoroacetate]", "values": [{"measurement": "IC50", "result": "< 1000", "unit": "nM"}]}, {"smiles": "COc1ccc(-n2nnc3cnc(NC4CCN(CCN5CCOCC5)CC4)nc32)cc1", "note": "[A78, [3-(4-methoxy-phenyl)-3H-[1,2,3]triazolo[4,5-d]pyrimidin-5-yl]-[1-(2-morpholin-4-yl-ethyl)-piperidin-4-yl]-amine]", "values": [{"measurement": "IC50", "result": "1000 to 5000", "unit": "nM"}]}, {"smiles": "COC(=O)[C@H]1CC[C@H](Nc2ncc3nnn(-c4ccc(OC)cc4)c3n2)C1", "note": "[A110, (1S,3S)-3-[3-(4-methoxy-phenyl)-3H-[1,2,3]triazolo[4,5-d]pyrimidin-5-ylamino]-cyclopentanecarboxylic acid methyl ester]", "values": [{"measurement": "IC50", "result": "< 1000", "unit": "nM"}]}, {"smiles": "NC(=O)CCn1cc(-c2ccc(-n3nnc4cnc(N[C@H]5CC[C@H](O)C5)nc43)cc2)cn1", "note": "(relative stereo) [A268, 3-(4-{4-[5-(trans-3-hydroxy-cyclopentylamino)-[1,2,3]triazolo[4,5-d]pyrimidin-3-yl]-phenyl}-pyrazol-1-yl)-propionamide]", "values": [{"measurement": "IC50", "result": "< 1000", "unit": "nM"}]}, {"smiles": "CCOc1ccc(-n2nnc3cnc(N[C@@H]4CC[C@H](C(N)=O)C4)nc32)cc1", "note": "[A149, (1S,3R)-3-[3-(4-ethoxy-phenyl)-3H-[1,2,3]triazolo[4,5-d]pyrimidin-5-ylamino]-cyclopentanecarboxylic acid amide]", "values": [{"measurement": "IC50", "result": "< 1000", "unit": "nM"}]}, {"smiles": "NC(=O)[C@@H]1CC[C@@H](Nc2ncc3nnn(-c4ccc(-c5cnn(CCO)c5)cn4)c3n2)C1", "note": "[A261, (1R,3R)-3-(3-{5-[1-(2-hydroxy-ethyl)-1H-pyrazol-4-yl]-pyridin-2-yl}-3H-[1,2,3]triazolo[4,5-d]pyrimidin-5-ylamino)-cyclopentanecarboxylic acid amide]", "values": [{"measurement": "IC50", "result": "< 1000", "unit": "nM"}]}, {"smiles": "COC(=O)[C@@H]1CC[C@@H](Nc2ncc3nnn(-c4ccc(OC)cc4)c3n2)C1", "note": "[A113, (1R,3R)-3-[3-(4-methoxy-phenyl)-3H-[1,2,3]triazolo[4,5-d]pyrimidin-5-ylamino]-cyclopentanecarboxylic acid methyl ester]", "values": [{"measurement": "IC50", "result": "< 1000", "unit": "nM"}]}, {"smiles": "NC(=O)[C@H]1CC[C@@H](Nc2ncc3nnn(-c4ccc(I)cc4)c3n2)C1", "note": "[A171, (1S,3R)-3-[3-(4-iodo-phenyl)-3H-[1,2,3]triazolo[4,5-d]pyrimidin-5-ylamino]-cyclopentanecarboxylic acid amide]", "values": [{"measurement": "IC50", "result": "< 1000", "unit": "nM"}]}, {"smiles": "N[C@H]1CC[C@H](Nc2ncc3nnn(-c4ccc(OCCN5CCOCC5)cc4)c3n2)CC1", "note": "[A95, trans-N-{3-[4-(2-morpholin-4-yl-ethoxy)-phenyl]-3H-[1,2,3]triazolo[4,5-d]pyrimidin-5-yl}-cyclohexane-1,4-diamine]", "values": [{"measurement": "IC50", "result": "< 1000", "unit": "nM"}]}]}
